Results taken from ChEMBL document CHEMBL3044770, “Studies on toxicity of antitubercular drugs namely isoniazid, rifampicin, and pyrazinamide in an in vitro model of HepG2 cell line” (Med Chem Res, 2011).

Columns and labels:
Assay type in all cases: cell-based
[1] = Toxicity in Homo sapiens (human) HepG2 cells assessed as cell viability at 10 mM after 24 hr by MTT assay; details: read-out: Activity
[2] = Toxicity in pyrazinamide pretreated Homo sapiens (human) HepG2 cells assessed as cell viability at 200 mM after 24 hr by MTT assay; details: HepG2 cells pretreated with pyrazinamide, read-out: Activity
HepG2 = test: Toxicity in Homo sapiens (human) HepG2 cells assessed as change in cell morphology at 1 mM after 24 hr by phase contrast microscopic analysis; details: hepg2, 24 h, 1000 µM
[3] = Toxicity in Homo sapiens (human) HepG2 cells assessed as cell viability at 1 mM after 24 hr by MTT assay; details: read-out: Activity
[4] = Toxicity in Homo sapiens (human) HepG2 cells assessed as cell viability at 5 mM after 24 hr by MTT assay; details: read-out: Activity
[5] = Toxicity in Homo sapiens (human) HepG2 cells assessed as cell viability at 50 mM after 24 hr by MTT assay; details: read-out: Activity
[6] = Toxicity in isoniazid pretreated Homo sapiens (human) HepG2 cells assessed as cell viability at 200 mM after 24 hr by MTT assay; details: HepG2 cells pretreated with isoniazid, read-out: Activity
[7] = Toxicity in Homo sapiens (human) HepG2 cells assessed as cell viability at 25 uM after 24 hr by MTT assay; details: read-out: Activity
[8] = Toxicity in Homo sapiens (human) HepG2 cells assessed as cell viability at 50 uM after 24 hr by MTT assay; details: read-out: Activity
[9] = Toxicity in Homo sapiens (human) HepG2 cells assessed as cell viability at 100 uM after 24 hr by MTT assay; details: read-out: Activity

## NNC(=O)c1ccncc1 [ISONIAZID]
[1]
  viability at 24 h, 10000 µM: 129%
[2]
  viability at 24 h, 200000 µM: 56.1%
HepG2
  Activity: Non-toxic
[3]
  viability at 24 h, 1000 µM: 125%
[4]
  viability at 24 h, 5000 µM: 99.7%
[5]
  viability at 24 h, 50000 µM: 91.3%

## NC(=O)c1cnccn1 [PYRAZINAMIDE]
[1]
  viability at 24 h, 10000 µM: 104%
[6]
  viability at 24 h, 200000 µM: 60.1%
HepG2
  Activity: Non-toxic
[3]
  viability at 24 h, 1000 µM: 87.7%
[4]
  viability at 24 h, 5000 µM: 102%
[5]
  viability at 24 h, 50000 µM: 102%

## CO[C@H]1/C=C/O[C@@]2(C)Oc3c(C)c(O)c4c(O)c(c(/C=N/N5CCN(C)CC5)c(O)c4c3C2=O)NC(=O)/C(C)=C\C=C\[C@H](C)[C@H](O)[C@@H](C)[C@@H](O)[C@@H](C)[C@H](OC(C)=O)[C@@H]1C [RIFAMPIN]
[7]
  viability at 24 h, 25 µM: 115%
[8]
  viability at 24 h, 50 µM: 116%
[9]
  viability at 24 h, 100 µM: 192%
